The values that follow are results of earlier work, collected in patent publication US20050249795A1, “Gemcitabine compositions for better drug delivery” (NEOPHARM, INC., priority 2002, published 2005).

The conditions of data set [1]: in patients.
The test system of data set [2] is LX-1 human lung xenografts. Conditions: in vivo, LX-1 human lung xenograft.
For data set [3], the system named is CALU-6 human lung xenografts. The settings on record: in vivo, CALU-6 human lung xenograft. On the technique in general: In xenograft studies the graft and the host belong to different species.
Another data set concerns NCI-H460 xenografts. Conditions: in vivo, NCI-H460 xenograft.
A further data set has as its system NCI-H520 xenografts. The settings on record: in vivo, NCI-H520 xenograft.
Data set [4] relates to Lewis lung murine xenograft.
The test system of data set [5] is CEM T lymphoblastoid cells.

Counter-ions that a name gives are not always drawn.

`Nc1ccn([C@@H]2O[C@H](CO)[C@@H](O)C2(F)F)c(=O)n1` [Gemcitabine HCL, gemcitabine hydrochloride]: the half-life result in data set [1] is given as “very short half-life”.

With `Nc1ccn([C@@H]2O[C@H](CO)[C@@H](O)C2(F)F)c(=O)n1` [Gemcitabine], the “activity with cisplatin in vitro” value is “dose-dependent synergistic activity”. In data set [2], the “activity in combination with cisplatin” value was “showed activity”. In addition, the “activity in combination with cisplatin” value in data set [3] was “showed activity”. Further, the “activity in combination with cisplatin” value with NCI-H460 xenografts is given as “minimal activity”. In addition, the “activity in combination with cisplatin” value with NCI-H520 xenografts was “minimal activity”. In data set [4], the interaction with cisplatin entry is on record as “synergistic”. Moreover, the “internucleosomal DNA fragmentation” value in data set [5] is “induces internucleosomal DNA fragmentation”.
